# Assay results taken from patent publication US20080214599A1, “Use of Par-1/Par-4 Inhibitors for Treating or Preventing Vascular Diseases” (priority 2005, published 2008).
# Experiments:
# Format in all cases: in vivo, human
# CD31 (PECAM-1) = experiment: Flow cytometry, platelet surface expression of CD31 (PECAM-1) in patients undergoing coronary stenting
# Method: (§1) The study sought to compare the antiplatelet properties of prasugrel and clopidogrel in the frame of a Phase 2 randomized trial. Specifically, nine patients undergoing coronary stenting were randomized to one of three arms of prasugrel (40-60-60 mg loading, and 7.5-10-15 mg maintenance daily dose), or clopidogrel (300 mg/75 mg). Aspirin and GP IIb/IIIa inhibitors were allowed.
# CD42 (GP-Ib) = experiment: Flow cytometry, platelet surface expression of CD42 (GP-Ib) in patients undergoing coronary stenting; set-up: CD42 (GP-Ib), flow cytometry: unit not given here
# Method: as §1
# CD62p (P-selectin) = experiment: Flow cytometry, platelet surface expression of CD62p (P-selectin) in patients undergoing coronary stenting; set-up: CD62p (P-selectin), flow cytometry: unit not given here
# Method: as §1
# CD151+CD14 = experiment: Flow cytometry, CD151+CD14 in patients undergoing coronary stenting; set-up: unit not given here
# Method: as §1
# CD40 ligand = experiment: Flow cytometry, platelet CD40 ligand in patients undergoing coronary stenting; set-up: CD40 ligand, flow cytometry: unit not given here
# Method: as §1
# CD165 (GP37) = experiment: Flow cytometry, platelet CD165 (GP37) in patients undergoing coronary stenting; set-up: CD165 (GP37), flow cytometry: unit not given here
# Method: as §1
# PAR-1/PAR-4 (WEDE15) = experiment: Flow cytometry, WEDE15 (PAR-1/PAR-4) in patients undergoing coronary stenting
# Method: as §1
# PAR-1/PAR-4 (SPAN12) = experiment: Flow cytometry, SPAN12 (PAR-1/PAR-4) in patients undergoing coronary stenting
# Method: as §1
# Thrombospondin = experiment: Flow cytometry, platelet thrombospondin in patients undergoing coronary stenting; set-up: Thrombospondin, flow cytometry: unit not given here
# Method: as §1
# [1] = system: platelets (ADP-induced aggregation); experiment: ADP-induced platelet aggregation in stented patients; settings: independent of the dosing regimen; vs patients treated with clopidogrel
# Method: (§2) The study sought to compare the antiplatelet properties of prasugrel and clopidogrel in the frame of a Phase 2 randomized trial. Specifically, nine patients undergoing coronary stenting were randomized to one of three arms of prasugrel (40-60-60 mg loading, and 7.5-10-15 mg maintenance daily dose), or clopidogrel (300 mg/75 mg). Aspirin and GP IIb/IIIa inhibitors were allowed. […] Applicants believe the above results are significant and establish a correlation between use of CS-747 (prasugrel) and inhibition of the activity or activation of PAR-1 and/or PAR-4 receptors. […] The correlations or trends shown in table 1 are independent of aspirin or Gb-11b inhibitor use by some patients at baseline. Confounding effects by aspirin or GB-IIb/IIIA use at baseline should be absent at 30 days.
# [2] = system: platelets (collagen-induced aggregation); experiment: Collagen-induced platelet aggregation in stented patients; settings: independent of the dosing regimen; vs patients treated with clopidogrel
# Method: as §2
# platelets = experiment: Ultegra Analyzer platelet function in stented patients; settings: independent of the dosing regimen; vs patients treated with clopidogrel
# Method: as §2
# GPIIb/IIIa antigen = experiment: Surface expression of GPIIb/IIIa antigen in stented patients; settings: independent of the dosing regimen; vs patients treated with clopidogrel
# Method: as §2
# [3] = system: GPIIb/IIIa activity with PAC-1 antibody; experiment: GPIIb/IIIa activity with PAC-1 antibody in stented patients; settings: independent of the dosing regimen; vs patients treated with clopidogrel
# Method: as §2
# [4] = 30 days after stent implantation
# [5] = Baseline, patients undergoing coronary stenting
# [6] = independent of the dosing regimen, vs patients treated with clopidogrel
smiles,measurement,setting,value
"COC(=O)[C@H](c1ccccc1Cl)N1CCc2sccc2C1 [clopidogrel, reference compound]","CD31 (PECAM-1), flow cytometry",CD31 (PECAM-1); 4 hr after stent implantation,41.6 ± 17.3
same,"CD31 (PECAM-1), flow cytometry",CD31 (PECAM-1); 24 hr after stent implantation,38.0 ± 18.9
same,"CD31 (PECAM-1), flow cytometry",CD31 (PECAM-1); [4],58.6 ± 8.4
same,"CD31 (PECAM-1), flow cytometry",CD31 (PECAM-1); [5],62.9 ± 12.2
same,"CD42 (GP-Ib), flow cytometry",CD42 (GP-Ib); 4 hr after stent implantation,134.2 ± 37.3
same,"CD42 (GP-Ib), flow cytometry",CD42 (GP-Ib); 24 hr after stent implantation,129.8 ± 37.6
same,"CD42 (GP-Ib), flow cytometry",CD42 (GP-Ib); [4],168.0 ± 48.0
same,"CD42 (GP-Ib), flow cytometry",CD42 (GP-Ib); [5],135.2 ± 35.1
same,"CD62p (P-selectin), flow cytometry",CD62p (P-selectin); 4 hr after stent implantation,10.0 ± 3.5
same,"CD62p (P-selectin), flow cytometry",CD62p (P-selectin); 24 hr after stent implantation,9.8 ± 3.6
same,"CD62p (P-selectin), flow cytometry",CD62p (P-selectin); [4],9.6 ± 1.4
same,"CD62p (P-selectin), flow cytometry",CD62p (P-selectin); [5],10.4 ± 3.4
same,"CD151+CD14, flow cytometry",CD151+CD14; 4 hr after stent implantation,62.6 ± 14.4
same,"CD151+CD14, flow cytometry",CD151+CD14; 24 hr after stent implantation,69.5 ± 22.4
same,"CD151+CD14, flow cytometry",CD151+CD14; [4],66.0 ± 9.5
same,"CD151+CD14, flow cytometry",CD151+CD14; [5],67.1 ± 14.5
same,"CD40 ligand, flow cytometry",CD40 ligand; 4 hr after stent implantation,4.1 ± 1.3
same,"CD40 ligand, flow cytometry",CD40 ligand; 24 hr after stent implantation,4.2 ± 1.3
same,"CD40 ligand, flow cytometry",CD40 ligand; [4],6.5 ± 1.6
same,"CD40 ligand, flow cytometry",CD40 ligand; [5],5.5 ± 1.3
same,"CD165 (GP37), flow cytometry",CD165 (GP37); 4 hr after stent implantation,17.8 ± 5.8
same,"CD165 (GP37), flow cytometry",CD165 (GP37); 24 hr after stent implantation,18.3 ± 4.2
same,"CD165 (GP37), flow cytometry",CD165 (GP37); [4],19.7 ± 3.0
same,"CD165 (GP37), flow cytometry",CD165 (GP37); [5],23.9 ± 5.2
same,"WEDE15 (PAR-1/PAR-4), flow cytometry",PAR-1/PAR-4 (WEDE15); 4 hr after stent implantation,20.9 ± 9.3
same,"WEDE15 (PAR-1/PAR-4), flow cytometry",PAR-1/PAR-4 (WEDE15); 24 hr after stent implantation,25.7 ± 9.6
same,"WEDE15 (PAR-1/PAR-4), flow cytometry",PAR-1/PAR-4 (WEDE15); [4],16.5 ± 3.2
same,"WEDE15 (PAR-1/PAR-4), flow cytometry",PAR-1/PAR-4 (WEDE15); [5],30.2 ± 10.9
same,"SPAN12 (PAR-1/PAR-4), flow cytometry",PAR-1/PAR-4 (SPAN12); 4 hr after stent implantation,16.2 ± 5.0
same,"SPAN12 (PAR-1/PAR-4), flow cytometry",PAR-1/PAR-4 (SPAN12); 24 hr after stent implantation,17.1 ± 5.3
same,"SPAN12 (PAR-1/PAR-4), flow cytometry",PAR-1/PAR-4 (SPAN12); [4],6.2 ± 0.9
same,"SPAN12 (PAR-1/PAR-4), flow cytometry",PAR-1/PAR-4 (SPAN12); [5],18.0 ± 4.8
same,"Thrombospondin, flow cytometry",Thrombospondin; 4 hr after stent implantation,6.7 ± 2.0
same,"Thrombospondin, flow cytometry",Thrombospondin; 24 hr after stent implantation,7.8 ± 2.8
same,"Thrombospondin, flow cytometry",Thrombospondin; [4],8.1 ± 1.3
same,"Thrombospondin, flow cytometry",Thrombospondin; [5],7.1 ± 2.0
"CC(=O)Oc1cc2c(s1)CCN(C(C(=O)C1CC1)c1ccccc1F)C2 (stereo not drawn) [prasugrel, 2-acetoxy-5-(α-cyclopropylcarbonyl-2-fluorobenzyl)-4,5,6,7-tetrahydrothieno[3,2-c]pyridine]","CD31 (PECAM-1), flow cytometry",CD31 (PECAM-1); 4 hr after stent implantation,52.5 ± 29.3
same,"CD31 (PECAM-1), flow cytometry",CD31 (PECAM-1); 24 hr after stent implantation,52.8 ± 28.7
same,"CD31 (PECAM-1), flow cytometry",CD31 (PECAM-1); [4],24.6 ± 24.4
same,"CD31 (PECAM-1), flow cytometry",CD31 (PECAM-1); [5],69.9 ± 19.3
same,"Platelet inhibition by surface expression of PECAM-1, compared with clopidogrel",CD31 (PECAM-1); [6],more potent platelet inhibition
same,"CD42 (GP-Ib), flow cytometry",CD42 (GP-Ib); 4 hr after stent implantation,138.7 ± 38.3
same,"CD42 (GP-Ib), flow cytometry",CD42 (GP-Ib); 24 hr after stent implantation,154.0 ± 39.6
same,"CD42 (GP-Ib), flow cytometry",CD42 (GP-Ib); [4],110.0 ± 47.7
same,"CD42 (GP-Ib), flow cytometry",CD42 (GP-Ib); [5],145.9 ± 35.5
same,"Platelet inhibition by surface expression of GPIb, compared with clopidogrel",CD42 (GP-Ib); [6],more potent platelet inhibition
same,"CD62p (P-selectin), flow cytometry",CD62p (P-selectin); 4 hr after stent implantation,8.9 ± 3.3
same,"CD62p (P-selectin), flow cytometry",CD62p (P-selectin); 24 hr after stent implantation,7.9 ± 1.4
same,"CD62p (P-selectin), flow cytometry",CD62p (P-selectin); [4],5.2 ± 2.3
same,"CD62p (P-selectin), flow cytometry",CD62p (P-selectin); [5],10.8 ± 4.1
same,"Platelet inhibition by surface expression of P-selectin, compared with clopidogrel",CD62p (P-selectin); [6],more potent platelet inhibition
same,"CD151+CD14, flow cytometry",CD151+CD14; 4 hr after stent implantation,60.1 ± 18.9
same,"CD151+CD14, flow cytometry",CD151+CD14; 24 hr after stent implantation,62.7 ± 29.2
same,"CD151+CD14, flow cytometry",CD151+CD14; [4],61.8 ± 23.0
same,"CD151+CD14, flow cytometry",CD151+CD14; [5],73.0 ± 11.1
same,"CD40 ligand, flow cytometry",CD40 ligand; 4 hr after stent implantation,4.8 ± 1.4
same,"CD40 ligand, flow cytometry",CD40 ligand; 24 hr after stent implantation,4.6 ± 1.1
same,"CD40 ligand, flow cytometry",CD40 ligand; [4],3.7 ± 1.3
same,"CD40 ligand, flow cytometry",CD40 ligand; [5],6.9 ± 0.8
same,"Platelet inhibition by surface expression of CD40-ligand, compared with clopidogrel",CD40 ligand; [6],more potent platelet inhibition
same,"CD165 (GP37), flow cytometry",CD165 (GP37); 4 hr after stent implantation,17.8 ± 5.6
same,"CD165 (GP37), flow cytometry",CD165 (GP37); 24 hr after stent implantation,15.8 ± 5.7
same,"CD165 (GP37), flow cytometry",CD165 (GP37); [4],12.2 ± 2.8
same,"CD165 (GP37), flow cytometry",CD165 (GP37); [5],24.7 ± 2.8
same,"Platelet inhibition by surface expression of GP37, compared with clopidogrel",CD165 (GP37); [6],more potent platelet inhibition
same,"WEDE15 (PAR-1/PAR-4), flow cytometry",PAR-1/PAR-4 (WEDE15); 4 hr after stent implantation,17.0 ± 6.2
same,"WEDE15 (PAR-1/PAR-4), flow cytometry",PAR-1/PAR-4 (WEDE15); 24 hr after stent implantation,19.6 ± 8.4
same,"WEDE15 (PAR-1/PAR-4), flow cytometry",PAR-1/PAR-4 (WEDE15); [4],15.3 ± 5.9
same,"WEDE15 (PAR-1/PAR-4), flow cytometry",PAR-1/PAR-4 (WEDE15); [5],37.0 ± 9.8
same,"SPAN12 (PAR-1/PAR-4), flow cytometry",PAR-1/PAR-4 (SPAN12); 4 hr after stent implantation,13.3 ± 2.5
same,"SPAN12 (PAR-1/PAR-4), flow cytometry",PAR-1/PAR-4 (SPAN12); 24 hr after stent implantation,12.0 ± 2.7
same,"SPAN12 (PAR-1/PAR-4), flow cytometry",PAR-1/PAR-4 (SPAN12); [4],6.6 ± 1.7
same,"SPAN12 (PAR-1/PAR-4), flow cytometry",PAR-1/PAR-4 (SPAN12); [5],19.5 ± 5.4
same,"Thrombospondin, flow cytometry",Thrombospondin; 4 hr after stent implantation,6.4 ± 1.1
same,"Thrombospondin, flow cytometry",Thrombospondin; 24 hr after stent implantation,6.7 ± 1.7
same,"Thrombospondin, flow cytometry",Thrombospondin; [4],4.0 ± 0.7
same,"Thrombospondin, flow cytometry",Thrombospondin; [5],7.3 ± 2.2
same,"Platelet inhibition by surface expression of thrombospondin receptor, compared with clopidogrel",Thrombospondin; [6],more potent platelet inhibition
same,"Platelet inhibition by ADP-induced aggregation, compared with clopidogrel",[1],more potent platelet inhibition
same,"Platelet inhibition by collagen-induced aggregation, compared with clopidogrel",[2],more potent platelet inhibition
same,"Platelet inhibition by Ultegra Analyzer, compared with clopidogrel",platelets,more potent platelet inhibition
same,"Platelet inhibition by surface expression of GPIIb/IIIa antigen, compared with clopidogrel",GPIIb/IIIa antigen,more potent platelet inhibition
same,"Platelet inhibition by GPIIb/IIIa activity with PAC-1 antibody, compared with clopidogrel",[3],more potent platelet inhibition
